In patent publication US10570184B2, “GLP-1/glucagon receptor co-agonists for medical use” (Novo Nordisk A/S, priority 2014, dated 2020):
Starred links: 1 amine or outer side, 2 acyl side, 3 side chain; linkers in the order of their positions; H or OH if unused. Non-standard residues stand in square brackets, D forms with d. Residues, ends and D or L forms follow the SMILES beside them. Groups on a side chain read outwards from the residue. *: point of attachment. C18 diacid = O=C(O)CCCCCCCCCCCCCCCCC(=O)*; γGlu = O=C(O)[C@H](CCC(=O)[*:2])N[*:1]; AEEA = NCCOCCOCC(=O)O; Aib = CC(C)(N)C(=O)O

Target: T1, human GLP-1 receptor (Homo sapiens, UniProt P43220)
T1 construct: expressed in transfected cells; host or cells: membranes of BHK cells (parent BHKTS13), clone FCW467-12A
T1 sequence (P43220 24-463): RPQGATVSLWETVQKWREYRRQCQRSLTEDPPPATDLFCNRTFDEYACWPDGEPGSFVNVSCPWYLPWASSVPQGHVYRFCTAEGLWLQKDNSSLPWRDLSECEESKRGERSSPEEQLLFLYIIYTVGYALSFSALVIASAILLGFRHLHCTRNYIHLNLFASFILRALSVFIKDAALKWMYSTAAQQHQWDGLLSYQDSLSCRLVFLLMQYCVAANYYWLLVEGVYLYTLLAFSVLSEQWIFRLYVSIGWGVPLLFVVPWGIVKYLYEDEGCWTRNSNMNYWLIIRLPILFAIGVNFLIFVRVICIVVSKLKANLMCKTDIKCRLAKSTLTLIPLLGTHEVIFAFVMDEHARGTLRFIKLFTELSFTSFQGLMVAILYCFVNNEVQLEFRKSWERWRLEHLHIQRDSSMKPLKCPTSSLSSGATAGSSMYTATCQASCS
Assay: Assay (II)(a) GLP-1 receptor binding, 125I-GLP-1 displacement SPA on BHK membranes
Details: without presence of serum albumin; read-out: GLP-1R IC50 (nM) [Assay (II)(a)]
Experimental: The GLP-1 receptor (GLP-1R) binding is a measure of affinity of a compound for the human GLP-1 receptor. The receptor binding of each compound to the human GLP-1 receptor was measured in a displacement binding assay. In this type of assay a labelled ligand (in this case 125I-GLP-1) is bound to the receptor. Each derivative was added in a series of concentrations to isolated membranes containing the human GLP-1 receptor and displacement of the labelled ligand was monitored. The receptor binding was reported as the concentration at which half of the labelled ligand was displaced from the receptor, the IC50 value. In order to test the binding of the derivatives to albumin, the assay may be performed in a very low concentration of serum albumin (max. 0.001% final assay concentration) as well as in the presence of a (considerably) higher concentration of serum albumin (2.0% final assay concentration). An increase of the IC50 value, in the presence of serum albumin indicates an affinity to serum albumin and represents a method to predict a protracted pharmacokinetic profile of the test substance in animal models. The following chemicals were used in the assay: DMEM w/o phenol red (Gibco 11880-028), Pen/strep (Invitrogen 15140-122), G418 (Invitrogen 10131-027), 1 M Hepes (Gibco 15630), EDTA (Invitrogen 15575-038), PBS (Invitrogen 14190-094), fetal calf serum (Invitrogen 16140-071), EGTA, MgCl2 (Merck 1.05832.1000), Tween 20 (Amresco 0850C335), SPA particles (wheat germ agglutinin (WGA) SPA beads, Perkin Elmer RPNQ0001), [125I]-GLP-1]-(7-36)NH2 (produced in-house), OptiPlate™-96 (Perkin Elmer). Buffer 1 consisted of 20 mM Na-HEPES plus 10 mM EDTA and pH was adjusted to 7.4. Buffer 2 consisted of 20 mM Na-HEPES plus 0.1 mM EDTA and pH was adjusted to 7.4. Assay buffer consisted of 50 mM HEPES supplemented with 5 mM EGTA, 5 mM MgCl2, 0.005% Tween 20 and pH was adjusted to 7.4. The cells used in this assay (clone FCW467-12A) were BHK cells with BHKTS13 as a parent cell line. The cells express the human GLP-1 receptor. The cells were grown at 5% CO2 in DMEM, 10% fetal calf serum, 1% Pen/Strep (Penicillin/Streptomycin) and 1.0 mg/ml of the selection marker G418. To make a membrane preparation the cells were grown to approximately 80% confluence. The cells were washed twice in phosphate-buffered saline and harvested. The cells were pelleted using a brief centrifugation and the cell pellet was kept on ice. The cell pellet was homogenised with ULTRA-THURRAX dispersing instrument for 20-30 seconds in a suitable amount of buffer 1 (e.g., 10 ml). The homogenate was centrifuged for 15 minutes. The pellet was re-suspended (homogenised) in 10 ml buffer 2 and centrifuged. This step was repeated once more. The resulting pellet was re-suspended in buffer 2 and the protein concentration was determined. The membranes were aliquoted and stored at minus 80° C. • 1. For the receptor binding assay, 50 μl of the assay buffer was added to each well of an assay plate. • 2. Test compounds were serially diluted to give the following concentrations: 8×10EE-7 M, 8×10EE-8 M, 8×10EE-9 M, 8×10EE-10 M, 8×10EE-11 M, 8×10EE-12 M and 8×10EE-13 M. Twenty-five μl were added to appropriate wells in the assay plate. • 3. Cell membrane aliquots were thawed and diluted to their working concentration. Fifty μl were added to each well in the assay plate. • 4. WGA SPA beads were suspended in assay buffer at 20 mg/ml. The suspension was diluted to 10 mg/ml in assay buffer just prior to addition to the assay plate. Fifty μl were added to each well in the assay plate. • 5. The incubation was started by adding 25 μl of […] solution of [125I]-GLP-1]-(7-36)NH2 to each well of the assay plate. A 25 μl aliquot was reserved for measuring total counts/well. • 6. The assay plate was incubated for 2 h at 30° C. • 7. The assay plate was centrifuged for 10 min. • 8. The assay plate was read in a Perkin Elmer TopCount NXT instrument. […]

| IC50 [nM] | Structure (SMILES) |
| --- | --- |
| 0.5 | CC[C@H](C)[C@H](NC(=O)[C@H](CC(C)C)NC(=O)[C@H](Cc1c[nH]c2ccccc12)NC(=O)[C@H](CCCCNC(=O)COCCOCCNC(=O)COCCOCCNC(=O)CC[C@H](NC(=O)CC[C@H](NC(=O)CC[C@H](NC(=O)CCCCCCCCCCCCCCCCC(=O)O)C(=O)O)C(=O)O)C(=O)O)NC(=O)[C@@H](NC(=O)[C@H](Cc1ccccc1)NC(=O)[C@H](CC(=O)O)NC(=O)[C@H](CCCNC(=N)N)NC(=O)[C@H](C)NC(=O)[C@H](CCCNC(=N)N)NC(=O)[C@H](CCCNC(=N)N)NC(=O)[C@H](CO)NC(=O)[C@H](CCC(=O)O)NC(=O)[C@H](CC(C)C)NC(=O)[C@H](Cc1ccc(O)cc1)NC(=O)[C@H](CCCCN)NC(=O)[C@H](CO)NC(=O)[C@H](Cc1ccc(O)cc1)NC(=O)[C@H](CC(=O)O)NC(=O)[C@H](CO)NC(=O)[C@@H](NC(=O)[C@H](Cc1ccccc1)NC(=O)[C@@H](NC(=O)CNC(=O)[C@H](CCC(N)=O)NC(=O)C(C)(C)NC(=O)[C@@H](N)Cc1c[nH]cn1)[C@@H](C)O)[C@@H](C)O)C(C)C)C(=O)N[C@@H](CO)C(=O)N[C@H](C(N)=O)[C@@H](C)O [Chem. 11, N^ε24-[2-[2-[2-[[2-[2-[2-[[(4S)-4-carboxy-4-[[(4S)-4-carboxy-4-[[(4S)-4-carboxy-4-(17-carboxyheptadecanoylamino)butanoyl]amino]butanoyl]amino]butanoyl]amino]ethoxy]ethoxy]acetyl]amino]ethoxy]ethoxy]acetyl]-[Aib2,Glu15,Arg20,Lys24,Ile27,Ser28]-Glucagon amide] (H-H[Aib]QGTFTSDYSKYLESRRARDFVK([AEEA-AEEA-γGlu-γGlu-γGlu-C18 diacid])WLIST-NH2) |
| 0.5 | CC[C@H](C)[C@H](NC(=O)[C@H](CC(C)C)NC(=O)[C@H](Cc1c[nH]c2ccccc12)NC(=O)[C@H](CCC(N)=O)NC(=O)[C@@H](NC(=O)[C@H](Cc1ccccc1)NC(=O)[C@H](CC(=O)O)NC(=O)[C@H](CCC(N)=O)NC(=O)[C@H](C)NC(=O)[C@H](CCCNC(=N)N)NC(=O)[C@H](CCCNC(=N)N)NC(=O)[C@H](CC(C)C)NC(=O)[C@H](CC(=O)O)NC(=O)[C@H](CC(C)C)NC(=O)[C@H](Cc1ccc(O)cc1)NC(=O)[C@H](CCCCN)NC(=O)[C@H](CO)NC(=O)[C@H](CC(C)C)NC(=O)[C@H](CC(=O)O)NC(=O)[C@H](CO)NC(=O)[C@@H](NC(=O)[C@H](Cc1ccccc1)NC(=O)[C@@H](NC(=O)CNC(=O)[C@H](CCC(N)=O)NC(=O)C(C)(C)NC(=O)[C@@H](N)Cc1c[nH]cn1)[C@@H](C)O)[C@@H](C)O)C(C)C)C(=O)N[C@@H](CCCCNC(=O)COCCOCCNC(=O)COCCOCCNC(=O)CC[C@H](NC(=O)CC[C@H](NC(=O)CC[C@H](NC(=O)CCCCCCCCCCCCCCCCC(=O)O)C(=O)O)C(=O)O)C(=O)O)C(=O)N[C@H](C(N)=O)[C@@H](C)O [Chem. 9, N^ε28-[2-[2-[2-[[2-[2-[2-[[(4S)-4-carboxy-4-[[(4S)-4-carboxy-4-[[(4S)-4-carboxy-4-(17-carboxyheptadecanoylamino)butanoyl]amino]butanoyl]amino]butanoyl]amino]ethoxy]ethoxy]acetyl]amino]ethoxy]ethoxy]acetyl]-[Aib2,Leu10,Leu16,Ile27,Lys28]-Glucagon amide] (H-H[Aib]QGTFTSDLSKYLDLRRAQDFVQWLIK([AEEA-AEEA-γGlu-γGlu-γGlu-C18 diacid])T-NH2; N-terminus assumed) |
| 0.9 | CC[C@H](C)[C@H](NC(=O)[C@H](CC(C)C)NC(=O)[C@H](Cc1c[nH]c2ccccc12)NC(=O)[C@H](CCCCNC(=O)COCCOCCNC(=O)COCCOCCNC(=O)CC[C@H](NC(=O)CC[C@H](NC(=O)CC[C@H](NC(=O)CCCCCCCCCCCCCCCCC(=O)O)C(=O)O)C(=O)O)C(=O)O)NC(=O)[C@@H](NC(=O)[C@H](Cc1ccccc1)NC(=O)[C@H](CC(=O)O)NC(=O)[C@H](CCCNC(=N)N)NC(=O)[C@H](C)NC(=O)[C@H](CCCNC(=N)N)NC(=O)[C@H](CCCNC(=N)N)NC(=O)[C@H](C)NC(=O)[C@H](CC(=O)O)NC(=O)[C@H](CC(C)C)NC(=O)[C@H](Cc1ccc(O)cc1)NC(=O)[C@H](CCCCN)NC(=O)[C@H](CO)NC(=O)[C@H](Cc1ccc(O)cc1)NC(=O)[C@H](CC(=O)O)NC(=O)[C@H](CO)NC(=O)[C@@H](NC(=O)[C@H](Cc1ccccc1)NC(=O)[C@@H](NC(=O)CNC(=O)[C@H](CCC(N)=O)NC(=O)C(C)(C)NC(=O)[C@@H](N)Cc1c[nH]cn1)[C@@H](C)O)[C@@H](C)O)C(C)C)C(=O)N[C@@H](CO)C(=O)N[C@H](C(N)=O)[C@@H](C)O [Chem. 1, N^ε24-[2-[2-[2-[[2-[2-[2-[[(4S)-4-carboxy-4-[[(4S)-4-carboxy-4-[[(4S)-4-carboxy-4-(17-carboxyheptadecanoylamino)butanoyl]amino]butanoyl]amino]butanoyl]amino]ethoxy]ethoxy]acetyl]amino]ethoxy]ethoxy]acetyl]-[Aib2,Ala16,Arg20,Lys24,Ile27,Ser28]-Glucagon amide] (H-H[Aib]QGTFTSDYSKYLDARRARDFVK([AEEA-AEEA-γGlu-γGlu-γGlu-C18 diacid])WLIST-NH2) |
| 0.1 | CC[C@H](C)[C@H](NC(=O)[C@H](CC(C)C)NC(=O)[C@H](Cc1c[nH]c2ccccc12)NC(=O)[C@H](CCC(N)=O)NC(=O)[C@@H](NC(=O)[C@H](Cc1ccccc1)NC(=O)[C@H](CC(=O)O)NC(=O)[C@H](CCCNC(=N)N)NC(=O)[C@H](C)NC(=O)[C@H](CCCNC(=N)N)NC(=O)[C@H](CCCNC(=N)N)NC(=O)[C@H](C)NC(=O)[C@H](CC(=O)O)NC(=O)[C@H](CC(C)C)NC(=O)[C@H](Cc1ccc(O)cc1)NC(=O)[C@H](CCCCN)NC(=O)[C@H](CO)NC(=O)[C@H](CC(C)C)NC(=O)[C@H](CC(=O)O)NC(=O)[C@H](CO)NC(=O)[C@@H](NC(=O)[C@H](Cc1ccccc1)NC(=O)[C@@H](NC(=O)CNC(=O)[C@H](CCC(N)=O)NC(=O)C(C)(C)NC(=O)[C@@H](N)Cc1c[nH]cn1)[C@@H](C)O)[C@@H](C)O)C(C)C)C(=O)N[C@@H](CCCCNC(=O)COCCOCCNC(=O)COCCOCCNC(=O)CC[C@H](NC(=O)CC[C@H](NC(=O)CC[C@H](NC(=O)CCCCCCCCCCCCCCCCC(=O)O)C(=O)O)C(=O)O)C(=O)O)C(=O)N[C@H](C(N)=O)[C@@H](C)O [Chem. 5, N^ε28-[2-[2-[2-[[2-[2-[2-[[(4S)-4-carboxy-4-[[(4S)-4-carboxy-4-[[(4S)-4-carboxy-4-(17-carboxyheptadecanoylamino)butanoyl]amino]butanoyl]amino]butanoyl]amino]ethoxy]ethoxy]acetyl]amino]ethoxy]ethoxy]acetyl]-[Aib2,Leu10,Ala16,Arg20,Ile27,Lys28]-Glucagon amide] (H-H[Aib]QGTFTSDLSKYLDARRARDFVQWLIK([AEEA-AEEA-γGlu-γGlu-γGlu-C18 diacid])T-NH2; N-terminus assumed) |
